# Structures can show the parent of a compound that is named as a salt.
row,melting point,SMILES
1,197 to 199 °C,"CC(C)n1c(CC[C@@H](O)C[C@@H](O)CC(=O)[O-])c(-c2ccc(F)cc2)c(-c2ccccc2)c1C(=O)Nc1cccc(C#N)c1.[Na+] [Example 142, (3R,5R)-7-[5-(3-Cyano-phenylcarbamoyl)-3-(4-fluoro-phenyl)-1-isopropyl-4-phenyl-1H-pyrrol-2-yl]-3,5-dihydroxy-heptanoic Acid Sodium Salt]"
2,178 to 180 °C,"CC(C)n1c(CC[C@@H](O)C[C@@H](O)CC(=O)[O-])c(-c2ccc(F)cc2)c(-c2ccccc2)c1C(=O)NCc1ccc(C#N)cc1.[Na+] [Example 144, (3R,5R)-7-[5-(4-Cyano-benzylcarbamoyl)-3-(4-fluoro-phenyl)-1-isopropyl-4-phenyl-1H-pyrrol-2-yl]-3,5-dihydroxy-heptanoic Acid Sodium Salt]"
3,255 to 260 °C,"CC(C)n1c(CC[C@@H](O)C[C@@H](O)CC(=O)[O-])c(-c2ccc(F)cc2)c(-c2ccccc2)c1C(=O)NCc1ccc(C(=O)[O-])cc1.[Na+].[Na+] [Example 164, (3R,5R)-4-({[5-(6-Carboxy-3,5-dihydroxy-hexyl)-4-(4-fluoro-phenyl)-1-isopropyl-3-phenyl-1H-pyrrole-2-carbonyl]-amino}-methyl)-benzoic Acid Disodium Salt]"
4,184 to 188 °C,"Cc1cnc(CNC(=O)c2c(-c3ccccc3)c(-c3ccc(F)cc3)c(CC[C@@H](O)C[C@@H](O)CC(=O)O)n2C(C)C)cn1 (as salt: sodium) [Example 97, (3R,5R)-7-[3-(4-Fluorophenyl)-1-isopropyl-5-[(5-methylpyrazin-2-ylmethyl)carbamoyl]-4-phenyl-1H-pyrrol-2-yl]-3,5-dihydroxyheptanoic Acid Sodium Salt]"
5,197 to 200 °C,"CC(C)n1c(CC[C@@H](O)C[C@@H](O)CC(=O)[O-])c(-c2ccc(F)cc2)c(-c2ccccc2)c1C(=O)NCCc1ccccc1.[Na+] [Example 91, (3R,5R)-7-[3-(4-Fluorophenyl)-1-isopropyl-5-(phenethylcarbamoyl)-4-phenyl-1H-pyrrol-2-yl]-3,5-dihydroxyheptanoic Acid Sodium Salt]"
6,226 to 228 °C,"CCNC(=O)c1c(-c2ccccc2)c(-c2ccc(F)cc2)c(/C=C/[C@@H](O)C[C@@H](O)CC(=O)[O-])n1C(C)C.[Na+] [Example 159, (3R,5S)-7-[5-Ethylcarbamoyl-3-(4-fluoro-phenyl)-1-isopropyl-4-phenyl-1H-pyrrol-2-yl]-3,5-dihydroxy-hept-6-enoic Acid Sodium Salt]"
7,228 to 230 °C,"CC(C)n1c(CC[C@@H](O)C[C@@H](O)CC(=O)[O-])c(-c2ccc(F)cc2)c(-c2ccc(F)cc2)c1C(=O)Nc1ccc(O)cc1.[Na+] [Example 133, (3R,5R)-7-[3,4-Bis-(4-fluoro-phenyl)-5-(4-hydroxy-phenylcarbamoyl)-1-isopropyl-1H-pyrrol-2-yl]-3,5-dihydroxy-heptanoic Acid Sodium Salt]"
8,199 to 201 °C,"CC(C)OC(=O)c1ccc(CNC(=O)c2c(-c3ccccc3)c(-c3ccc(F)cc3)c(CC[C@@H](O)C[C@@H](O)CC(=O)[O-])n2C(C)C)cc1.[Na+] [Example 148, (3R,5R)-7-[3-(4-Fluoro-phenyl)-5-(4-isopropoxycarbonyl-benzylcarbamoyl)-1-isopropyl-4-phenyl-1H-pyrrol-2-yl]-3,5-dihydroxy-heptanoic Acid Sodium Salt]"
9,227 to 229 °C,"COc1ccc([C@H](C)NC(=O)c2c(-c3ccc(F)cc3)c(-c3ccc(F)cc3)c(CC[C@@H](O)C[C@@H](O)CC(=O)[O-])n2C(C)C)cc1.[Na+] [Example 152, (3R,5R)-7-{3,4-Bis-(4-fluoro-phenyl)-1-isopropyl-5-[(S)—I-(4-methoxy-phenyl)-ethylcarbamoyl]-1H-pyrrol-2-yl]-3,5-dihydroxy-heptanoic Acid Sodium Salt]"
10,238 to 240 °C,"CNC(=O)c1c(-c2ccccc2)c(-c2ccc(F)cc2)c(CC[C@@H](O)C[C@@H](O)CC(=O)[O-])n1C(C)C.[Na+] [Example 156, (3R,5R)-7-[3-(4-Fluoro-phenyl)-1-isopropyl-5-methylcarbamoyl-4-phenyl-1H-pyrrol-2-yl]-3,5-dihydroxy-heptanoic Acid Sodium Salt]"

# Second part, the molecule before the results:
row,SMILES,melting point
1,Cc1c[nH]c(CNC(=O)c2c(-c3ccccc3)c(-c3ccc(F)cc3)c(CC[C@@H](O)C[C@@H](O)CC(=O)O)n2C(C)C)n1 (as salt: sodium) [Example 95],213 to 215 °C (dec.)
2,"CC(C)n1c(/C=C/[C@@H](O)C[C@@H](O)CC(=O)[O-])c(-c2ccc(F)cc2)c(-c2ccc(F)cc2)c1C(=O)Nc1cccc(OCc2ccccc2)c1.[Na+] [Example 132, (3R,5 S)-7-[5-(3-Benzyloxy-phenylcarbamoyl)-3,4-bis-(4-fluoro-phenyl)-1-isopropyl-1H-pyrrol-2-yl]-3,5-dihydroxy-hept-6-enoic Acid Sodium Salt]",225 to 227 °C
3,"CC(C)n1c(C=C[C@H](O)C[C@@H](O)CC(=O)[O-])c(-c2ccc(F)cc2)c(-c2ccc(F)cc2)c1C(=O)Nc1ccc(CS(C)(=O)=O)cc1.[Na+] [Example 106, (3R,5R)-7-[3,4-Bis-(4-fluoro-phenyl)-1-isopropyl-5-(4-methanesulfonylmethyl-phenyl-carbamoyl)-1H-pyrrol-2-yl]-3,5-dihydroxy-hept-6-enoic Acid, Sodium Salt]",256 °C (dec.)
4,"COC(=O)c1ccc(NC(=O)c2c(-c3ccccc3)c(-c3ccc(F)cc3)c(CC[C@@H](O)C[C@@H](O)CC(=O)[O-])n2C(C)C)cc1.[Na+] [Example 116, (3R,5R)-4-{[5-(6-Carboxy-3,5-dihydroxy-hexyl)-4-(4-fluoro-phenyl)-1-isopropyl-3-phenyl-1H-pyrrole-2-carbonyl]-amino}-benzoic Acid Methyl Ester Sodium Salt]",188 to 191 °C (dec.)
5,"CC(C)n1c(CC[C@@H](O)C[C@@H](O)CC(=O)[O-])c(-c2ccc(F)cc2)c(-c2ccccc2)c1C(=O)NCc1cccc(C#N)c1.[Na+] [Example 146, (3R,5R)-7-[5-(3-Cyano-benzylcarbamoyl)-3-(4-fluoro-phenyl)-1-isopropyl-4-phenyl-1H-pyrrol-2-yl]-3,5-dihydroxy-heptanoic Acid Sodium Salt]",180 to 182 °C
6,"COc1cccc(CNC(=O)c2c(-c3ccc(F)cc3)c(-c3ccc(F)cc3)c(CC[C@@H](O)C[C@@H](O)CC(=O)[O-])n2C(C)C)c1.[Na+] [Example 110, (3R,5R)-7-[3,4-Bis-(4-fluoro-phenyl)-1-isopropyl-5-(3-methoxy-benzylcarbamoyl)-1H-pyrrol-2-yl]-3,5-dihydroxy-heptanoic Acid, Sodium Salt]",207 to 209 °C
7,"CC(C)n1c(/C=C/[C@@H](O)C[C@@H](O)CC(=O)[O-])c(-c2ccc(F)cc2)c(-c2ccccc2)c1C(N)=O.[Na+] [Example 160, (3R,5S)-7-[5-Carbamoyl-3-(4-fluoro-phenyl)-1-isopropyl-4-phenyl-1H-pyrrol-2-yl]-3,5-dihydroxy-hept-6-enoic Acid Sodium Salt]",238 to 240 °C
8,"CC(C)n1c(CC[C@@H](O)C[C@@H](O)CC(=O)[O-])c(-c2ccc(F)cc2)c(-c2ccccc2)c1C(=O)NCc1ccccc1.[Na+] [Example 114, (3R,5R)-7-[5-Benzylcarbamoyl-3-(4-fluoro-phenyl)-1-isopropyl-4-phenyl-1H-pyrrol-2-yl]-3,5-dihydroxy-heptanoic Acid Sodium Salt]",186 to 189 °C
9,"CC(C)n1c(/C=C/[C@@H](O)C[C@@H](O)CC(=O)O)c(-c2ccc(F)cc2)c(-c2ccccc2)c1C(=O)NCc1ccc(F)cc1 (as salt: sodium) [Example 10, (3R,5S)-7-[5-(4-Fluoro-benzylcarbamoyl)-3-(4-fluoro-phenyl)-1-isopropyl-4-phenyl-1H-pyrrol-2-yl]-3,5-dihydroxy-hept-6-enoic Acid Sodium Salt]",221 to 223 °C
10,"COc1cccc(NC(=O)c2c(-c3ccc(F)cc3)c(-c3ccc(F)cc3)c(CC[C@@H](O)C[C@@H](O)CC(=O)[O-])n2C(C)C)c1.[Na+] [Example 136, (3R,5R)-7-[3,4-Bis-(4-fluoro-phenyl)-1-isopropyl-5-(3-methoxy-phenylcarbamoyl)-1H-pyrrol-2-yl]-3,5-dihydroxy-heptanoic Acid Sodium Salt]",215 to 217 °C
11,"CC(C)n1c(CC[C@@H](O)C[C@@H](O)CC(=O)[O-])c(-c2ccc(F)cc2)c(-c2ccc(F)cc2)c1C(=O)NCc1ccc(C(=O)[O-])cc1.[Na+].[Na+] [Example 162, (3R,5R)-4-({[5-(6-Carboxy-3,5-dihydroxy-hexyl)-3,4-bis-(4-fluoro-phenyl)-1-isopropyl-1H-pyrrole-2-carbonyl]-amino}-methyl)-benzoic Acid Disodium Salt]",298 to 300 °C
12,"CC(C)n1c(/C=C/[C@@H](O)C[C@@H](O)CC(=O)[O-])c(-c2ccc(F)cc2)c(-c2ccccc2)c1C(=O)NCc1cccc(C#N)c1.[Na+] [Example 147, (3R,5S)-7-[5-(3-Cyano-benzylcarbamoyl)-3-(4-fluoro-phenyl)-1-isopropyl-4-phenyl-1H-pyrrol-2-yl]-3,5-dihydroxy-hept-6-enoic Acid Sodium Salt]",208 to 210 °C
13,"CC(C)n1c(CC[C@@H](O)C[C@@H](O)CC(=O)[O-])c(-c2ccc(F)cc2)c(-c2ccc(F)cc2)c1C(=O)NCc1cccc(S(=O)(=O)N(C)C)c1.[Na+] [Example 71, (3R,5R)-7-[5-(3-dimethylsulfamoyl-benzylcarbamoyl)-3,4-bis-(4-fluoro-phenyl)-1-isopropyl-1H-pyrrol-2-yl]-3,5-dihydroxy-heptanoate Sodium Salt]",172 to 175 °C
14,"CC(C)n1c(CC[C@@H](O)C[C@@H](O)CC(=O)[O-])c(-c2ccc(F)cc2)c(-c2ccc(F)cc2)c1C(=O)NCc1ccccn1.[Na+] [Example 69, (3R,5R)-7-{3,4-bis-(4-fluoro-phenyl)-1-isopropyl-5-[(pyridin-2-ylmethyl)-carbamoyl]-1H-pyrrol-2-yl}-3,5-dihydroxy-heptanoate Sodium Salt]",200 to 205 °C
15,CC(C)n1c(CC[C@@H](O)C[C@@H](O)CC(=O)O)c(-c2ccc(F)cc2)c(-c2ccccc2)c1C(=O)NCc1nc2ccccc2[nH]1 (as salt: sodium) [Example 92],234 to 236 °C (dec.)
